Assays:
naïve CD4^+ T cells = test: Naive CD4+ T cells with anti-CD3/anti-CD28 coated beads; assay type: cell-based, mice
From the text: FIG. 4A-4K: Effect of inosine on T cell differentiation and dependency on classical dendritic cells of ICB therapy efficacy. (a) Scatter plot of untargeted metabolomics data in the serum of anti-CTLA-4 treated, tumor-bearing B.p. monocolonized compared to C.sp. monocolonized and germ-free (GF) mice. Grey circles or dotted grey circles depict inosine or inosine fragments/adducts, respectively. […] (c) Naïve CD4^+ T cells were co-cultured with bone marrow derived dendritic cells and IFN-γ. Quantification of T-bet^+CD3ε^+CD4^+ T cells 48 hours after co-culture in the presence or absence of inosine, A2A receptor inhibitor (ZM241385), cell permeable cAMP (db-cAMP) and protein kinase A inhibitor (RP-8-CPT-CAMPS). (d) Same as (c) without IFN-γ. (e) Representative plot and quantification (left and right panel) of phospho-CREB (Ser133) levels in naïve CD4^+ T cells cultured with anti-CD3/anti-CD28 coated beads for 1 hour in the presence or absence of inosine. (f) Schematic overview of experimental setup to deplete classical dendritic cells during MC38 tumor challenge and anti-CTLA-4 treatment. Intratumoral (g) frequency of CD8^+ T cells (h) IFN-γ^+CD8^+ T cells. (i and j) same as (g and h), but CD4^+ T cells and (k) tumor weight at […]. Data are mean±SEM and pooled from two individual experiments (a-b) n=5-8 samples/group (c-e) 10-15 biological replicates/group (f-k) 10 mice/group. *, P<0.05; **, P<0.01; ***, P<0.001; ****, P<0.0001
FIG. 16A-16J: Context dependent effect of inosine on Th1 T cell differentiation. (a) Naïve CD4^+ T cells were co-cultured with bone marrow derived dendritic cells without IFN-γ. Quantification of T-bet^+CD3e^+CD4^+ T cells 48 hours after co-culture in the presence or absence of inosine and anti-CTLA-4, as indicated. (b) Naïve CD4^+ T cells were cultured anti-CD3/anti-CD28 coated beads at a ratio of 1:1 without IFN-γ for 48 hours. Representative plot and quantification of IL12Rβ2 surface expression on CD4^+ T cells in the presence or absence of inosine (left and right panel). (c) Quantification of T-bet^+CD3e^+CD4^+ T cells 48 hours after co-culture in the presence or absence of inosine, db-cAMP and anti-CTLA-4 as indicated. (d) Naïve, A2AR-deficient CD4^+ T cells were cultured with anti-CD3/anti-CD28 coated beads at a ratio of 1:1 without IFN-γ. Quantification of T-bet^+CD3e^+CD4^+ T cells 48 hours after co-culture in the presence or absence of inosine or db-cAMP (e) Representative plot and quantification (left and right panel) of pCREB expression of anti-CD3/anti-CD28 bead co-cultured CD4^+ T cells in the presence or absence of inosine or db-cAMP 1 hour after stimulation. Analysis through flow cytometry. (f and g) Naïve, wild type CD4^+ T cells were cultured with anti-CD3/anti-CD28 coated beads at a ratio of 1:1. Il12rb2 and Ifng gene transcripts (normalized to Gapdh) were evaluated 24 and 48 hours following inosine (1 mM) stimulation. Expression was normalized to cells treated with medium. Analysis through quantitative PCR assay (h) Naïve CD4^+ T cells were cultured with anti-CD3/anti-CD28 coated beads at a ratio of 1:1 without IFN-γ for 24 hours. Then inosine or vehicle was added at the indicated concentrations for another 48 hours before T cell differentiation and activation was assessed. (i) Adenosine concentrations in the duodenal-, jejunal- or cecal content of B.p. monocolonized mice and in the serum of B.p. or C.sp. monocolonized anti-CTLA-4 treated mice. (j) Naïve CD4^+ T cells were cultured with anti-CD3/anti-CD28 coated beads at a ratio of 1:1 without IFN-γ for 24 hours. Adenosine or was added then in the indicated concentrations for another 48 hours followed by T cell differentiation and activation was assessed through flow cytometry. […]

MC38 = MC38 tumors in gnotobiotic Oligo-MM12 mice, inosine + anti-CTLA-4; assay type: in vivo
Protocol: FIG. 35A-35H. Inosine and live B. pseudolongum improve anti-CTLA-4 therapy efficacy in moderately diverse and complex microbiomes. A) Schematic overview of experimental setup to assess the effect of inosine on anti-tumor immunity in gnotobiotic mice (Oligo-MM12) stably colonized with 12 bacterial species. Upon palpable tumors, Oligo-MM12 colonized mice were treated with 100 μg anti-CTLA-4 i.p. or Isotype antibody (5 times every 72 hours). In addition, inosine (300 mg/KG/BW) or PBS was given daily orally through gavage. (B) Pictures of tumors and (C) tumor weight are shown at day 20. scale bars: 1 cm. (D) Quantification of intratumoral IFN-γ+ cells amongst CD8+ or CD4+ T cells are shown. (E) Schematic overview of experimental setup to assess the effect of inosine and B. pseudolongum on anti-tumor immunity in SPF mice. Following MC38 injection some mice received antibiotics (ABX), specifically Ampicillin 1 mg/ml, Colistin 1 mg/ml and Streptomycin 5 mg/ml for 7 days in the drinking water. Upon palpable tumors, antibiotics were removed and 100 μg anti-CTLA-4 (5 times every 72 hours) started. Mice concomitantly received either PBS, inosine (300 mg/KG/BW daily), B. pseudolongum or heat inactivated (H.i.) B. pseudolongum orally through gavage (5 times every 72 hours). (F) Pictures of tumors and (G) tumor weight are shown at day 20. scale bars: 1 cm. (H) Quantification of intratumoral IFN-γ+ cells amongst CD8+ or CD4+ cells are shown. Data are mean+/−SEM and (A-H) n=7 mice/group. P<0.05; **, P<0.01, ***, P<0.001.

Compound: OC[C@H]1O[C@@H](n2cnc3c(O)ncnc32)[C@H](O)[C@@H]1O [inosine]
- phosphorylation of CREB (Ser133) (naïve CD4^+ T cells; 1 hour): led to phosphorylation
- Th1 differentiation (naïve CD4^+ T cells; bead-activated naïve T cells, no DCs): enhanced Th1 differentiation, even in the absence of IFN-γ
- Il12rb2 and Ifng gene transcription (naïve CD4^+ T cells; inosine 1 mM, 24 and 48 hours, quantitative PCR): sustained upregulation
- Th1 activation, inosine dose response (naïve CD4^+ T cells; physiological concentrations observed in sera of B.p. but not C.sp. monocolonized mice): sufficient to induce Th1 activation
- IL12Rβ2 surface expression (naïve CD4^+ T cells; without IFN-γ, 48 hours): upregulation of IL12Rβ2
- intra-tumoral IFN-γ+CD8+ and IFN-γ+CD4+ T cells (MC38): increased
- tumor size (MC38): reduced tumor size
- anti-tumor effects of anti-CTLA-4 (MC38; inosine 300 mg/KG/BW daily orally): able to promote the anti-tumor effects of anti-CTLA-4

Source: patent US20240181049A1, “HARNESSING THE POWER OF MICROBIOTA AND METABOLITES FOR THE TREATMENT OF CANCER” (UTI LIMITED PARTNERSHIP, priority 2019, published 2024)
